Measurements: the supplement of paper PMC5908809

Experiments:
Experiment in all cases: relative IC50 (inflection point of fitted viability curve, relative to fitted max inhibition); higher = less sensitive
Settings in all cases: 72 h
KHYG-1 (IL-2 2.5 ng/mL) = system: KHYG-1 (IL-2 2.5 ng/mL)
Protocol: (§1)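 Drug sensitivity and resistance testing: 5 concentrations over a 10,000-fold range, 72 h at 37 °C, viability by CellTiter-Glo normalised to DMSO and benzethonium chloride controls. IC50 is the inflection point of a logistic fit (min fixed at 0, max fitted), so it is relative to the fitted maximal inhibition. Kept only where fitted max inhibition is at least 50%.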

NK-92 (IL-2 2.5 ng/mL) = system: NK-92 (IL-2 2.5 ng/mL)
Protocol: as §1

KAI3 (IL-2 2.5 ng/mL) = system: KAI3 (IL-2 2.5 ng/mL)
Protocol: as §1

NKL (IL-2 2.5 ng/mL) = system: NKL (IL-2 2.5 ng/mL)
Protocol: as §1

DERL-7 (IL-2 2.5 ng/mL) = system: DERL-7 (IL-2 2.5 ng/mL)
Protocol: as §1

NK-YS (IL-2 2.5 ng/mL) = system: NK-YS (IL-2 2.5 ng/mL)
Protocol: as §1

IMC-1 (IL-2 20 ng/mL) = system: IMC-1 (IL-2 20 ng/mL)
Protocol: as §1

[1] = system: normal primary NK cells, pool 3 (3 donors) (IL-2 2.5 ng/mL)
Protocol: as §1

[2] = system: normal primary NK cells, pool 2 (3 donors) (IL-2 2.5 ng/mL)
Protocol: as §1

SNK-6 (IL-2 2.5 ng/mL) = system: SNK-6 (IL-2 2.5 ng/mL)
Protocol: as §1

[3] = system: normal primary NK cells, pool 1 (3 donors), resting (IL-2 0 ng/mL)
Protocol: as §1

YT (IL-2 2.5 ng/mL) = system: YT (IL-2 2.5 ng/mL)
Protocol: as §1

Row | Compound | relative IC50 (KHYG-1 (IL-2 2.5 ng/mL)) [nM] | relative IC50 (NK-92 (IL-2 2.5 ng/mL)) [nM] | relative IC50 (KAI3 (IL-2 2.5 ng/mL)) [nM] | relative IC50 (NKL (IL-2 2.5 ng/mL)) [nM] | relative IC50 (DERL-7 (IL-2 2.5 ng/mL)) [nM] | relative IC50 (NK-YS (IL-2 2.5 ng/mL)) [nM] | relative IC50 (IMC-1 (IL-2 20 ng/mL)) [nM] | relative IC50 [1] [nM] | relative IC50 [2] [nM] | relative IC50 (SNK-6 (IL-2 2.5 ng/mL)) [nM] | relative IC50 [3] [nM] | relative IC50 (YT (IL-2 2.5 ng/mL)) [nM]
1 | Cn1cc(-c2cnn3c(N)c(Br)c([C@@H]4CCCNC4)nc23)cn1 [MK-8776] | 311 | 750 | 337 | 372 | 539 | 668 |  |  |  |  |  | 
2 | CC(C)(O)CC(=O)NCCn1ccc2ncnc(Nc3ccc(Oc4cccc(C(F)(F)F)c4)c(Cl)c3)c21 [TAK-285] |  |  |  | > 2500 |  |  | > 2500 | > 2500 | > 2500 |  |  | 
3 | CC1(C)CNc2cc(NC(=O)c3cccnc3NCc3ccncc3)ccc21 [Motesanib] |  |  |  |  |  |  |  |  |  | > 10000 |  | 
4 | Nc1nc2[nH]cc(CCc3ccc(C(=O)N[C@@H](CCC(=O)O)C(=O)O)cc3)c2c(=O)[nH]1 [Pemetrexed] |  |  |  |  |  |  | 146 | > 10000 | > 10000 |  |  | 
5 | COc1cc(C(=O)O)ccc1NC(=O)[C@@H]1N[C@@H](CC(C)(C)C)[C@](C#N)(c2ccc(Cl)cc2F)[C@H]1c1cccc(Cl)c1F [Idasanutlin] |  |  |  |  |  |  |  | 265 | 197 |  |  | 
6 | C=C1C[C@@H]2[C@H](CC[C@]3(C)C(=O)CC[C@@H]23)[C@@]2(C)C=CC(=O)C=C12 [Exemestane] |  |  |  |  |  |  |  |  |  |  | 3290 | 
7 | COCC(=O)NC/C=C/c1ccc2ncnc(Nc3ccc(Oc4ccc(C)nc4)c(C)c3)c2c1 |  | 1470 | 1870 | 2070 |  |  | 2920 |  |  | 3270 | 834 | 
8 | CS(=O)(=O)c1ccc(C(=O)Nc2ccc(Cl)c(-c3ccccn3)c2)c(Cl)c1 [Vismodegib] |  | 1400 |  |  |  |  |  |  |  |  |  | 
9 | COc1cc2/c(=N/c3ccc(Br)cc3F)nc[nH]c2cc1OCC1CCN(C)CC1 [Vandetanib] |  |  |  |  |  |  |  | > 1000 |  |  |  | 
10 | C[C@@]1(C(=O)Nc2ccc(F)nc2)CCCN1c1nc(Nc2cc(C3CC3)n[nH]2)c2cccn2n1 | 1150 | 617 |  |  | 290 | 412 | 2850 |  |  | 630 | 3420 | 904
11 | CCCS(=O)(=O)Nc1ccc(F)c(C(=O)c2c[nH]c3ncc(-c4ccc(Cl)cc4)cc23)c1F [Vemurafenib] | 1130 | 1610 | 1910 | 1900 | 1760 | 3080 |  |  |  | 3170 |  | 1910
12 | O=C(O)C1(C(=O)O)CCC1.[NH2-].[NH2-].[Pt+2] [Carboplatin] |  |  |  |  |  |  | 8070 | 16000 | 16600 |  |  | 
13 | Cn1cnc2c(F)c(Nc3ccc(Br)cc3F)c(C(=O)NOCCO)cc21 [Binimetinib] |  |  |  | 19.6 |  |  |  |  |  | > 1000 |  | 
14 | Nc1nccc(-c2c(-c3ccc(F)cc3)ncn2C2CCCCC2)n1 |  |  | 39.1 |  |  |  |  |  |  | 2170 |  | 
15 | CC(=O)O[C@H]1C(=O)[C@@]2(C)[C@H]([C@H](OC(=O)c3ccccc3)[C@]3(O)C[C@H](OC(=O)[C@H](O)[C@@H](NC(=O)c4ccccc4)c4ccccc4)C(C)=C1C3(C)C)[C@]1(OC(C)=O)CO[C@@H]1C[C@@H]2O [Paclitaxel] | 6.15 | 22 | 2.92 | 4.61 | 3.25 | 4.26 | 3.31 |  |  | 3.77 |  | 5.42
16 | Cc1cnc(Nc2ccc(OCCN3CCCC3)cc2)nc1Nc1cccc(S(=O)(=O)NC(C)(C)C)c1 [Fedratinib] |  |  |  |  |  |  | 929 | 479 | 462 |  |  | 

Row | Compound | relative IC50 (KHYG-1 (IL-2 2.5 ng/mL)) [nM] | relative IC50 (NK-92 (IL-2 2.5 ng/mL)) [nM] | relative IC50 (KAI3 (IL-2 2.5 ng/mL)) [nM] | relative IC50 (NKL (IL-2 2.5 ng/mL)) [nM] | relative IC50 (DERL-7 (IL-2 2.5 ng/mL)) [nM] | relative IC50 (NK-YS (IL-2 2.5 ng/mL)) [nM] | relative IC50 (IMC-1 (IL-2 20 ng/mL)) [nM] | relative IC50 [1] [nM] | relative IC50 [2] [nM] | relative IC50 (SNK-6 (IL-2 2.5 ng/mL)) [nM] | relative IC50 [3] [nM] | relative IC50 (YT (IL-2 2.5 ng/mL)) [nM]
17 | CC[C@@H]1C(=O)N(C)c2cnc(Nc3ccc(C(=O)NC4CCN(C)CC4)cc3OC)nc2N1C1CCCC1 [BI 2536] | 22.1 | 11.4 | 8.37 | 9.81 | 8.62 | 13.5 | 14.8 |  | 218 | 4.57 |  | 26.3
18 | FC(F)c1nc2ccccc2n1-c1nc(N2CCOCC2)nc(N2CCOCC2)n1 [ZSTK474] |  | 31.2 | 290 | 436 | 110 | 655 |  |  |  | 832 |  | 262
19 | Nc1ncn([C@H]2C[C@H](O)[C@@H](CO)O2)c(=O)n1 [Decitabine] | 678 | 392 | 26.9 |  | 436 | 474 |  |  |  | 31.8 |  | 
20 | O=c1[nH]cc(F)c(=O)[nH]1 [Fluorouracil] | 2010 | 526 |  | 1230 | 2490 | 1040 |  |  |  | 1190 |  | 820
21 | O=C(Nc1cccc(C(F)(F)F)c1)Nc1cc(S(=O)(=O)NC2CC2)ccc1-c1ccsc1 [AGI-6780] |  | 1390 |  |  |  |  |  |  |  |  |  | 
22 | CCN1CCN(Cc2ccc(Nc3ncc(F)c(-c4cc(F)c5nc(C)n(C(C)C)c5c4)n3)nc2)CC1 [Abemaciclib] | 236 |  |  |  | 130 | 446 | 978 |  | 743 |  | > 2500 | 
23 | COc1cccc2cc(-c3nc([C@H]4CC[C@H](C(=O)O)CC4)n4ncnc(N)c34)[nH]c12 [OSI-027] | 1500 | 579 | 775 | 342 | 1220 | 1820 |  |  |  | 564 |  | 1160
24 | Oc1ccc2c(c1)CC[C@H](c1ccccc1)[C@@H]2c1ccc(OCCN2CCCC2)cc1 [Lasofoxifene] |  |  |  | > 1000 |  |  |  | > 1000 | > 1000 |  |  | 
25 | CS(=O)(=O)c1ccc(-c2cnc(N)c(C(=O)Nc3ccccc3)n2)cc1 [VE-821] | 1550 |  | 332 |  | 1540 |  | 2660 |  |  | 795 |  | 
26 | CCn1cc(-c2ccnc3[nH]c(-c4cccc(CN(C)C)c4)cc23)c(-c2ccc(NC(=O)N(C)C)cc2)n1 | 39.7 |  |  |  | 17.6 | 12.3 | 158 |  |  | 4.21 |  | 
27 | CN1CCN(c2ccc3nc(-c4c(N)c5c(F)cccc5[nH]c4=O)[nH]c3c2)CC1 [Dovitinib] |  |  |  | 1900 |  |  | > 10000 |  |  | > 10000 | 1860 | 
28 | CN1CCC(COc2cnc(-c3cccc(Cn4nc(-c5cccc(C#N)c5)ccc4=O)c3)nc2)CC1 |  |  | > 1000 |  |  | > 1000 | > 1000 | > 1000 |  |  |  | 
29 | Cc1cc(C)c(CNC(=O)c2cc(-c3ccc(CN4CCOCC4)cc3)cc3c2cnn3C2CCCC2)c(=O)[nH]1 [EPZ-5687] |  | > 10000 |  | > 10000 |  |  | > 10000 | > 10000 | > 10000 |  |  | 
30 | CC[C@H](Nc1ncnc2[nH]cnc12)c1nc2cccc(F)c2c(=O)n1-c1ccccc1 [Idelalisib] |  | 31.7 |  |  | 675 |  |  |  |  | 891 |  | 
31 | CS(=O)(=O)OCCCCOS(C)(=O)=O [Busulfan] | 26600 | 36400 | 24600 | 27300 |  | 29600 | 26900 |  | 35600 | 15800 |  | 
